Results reported in article PMC2962730 (Journal of neurochemistry, 2010).
Where a chain is given by its changes, count along the chain named.

Experiments:
hVAChT K317A [1] = target: T1, hVAChT K317A (Homo sapiens, UniProt Q16572, K317A); test: [3H]vesamicol saturation binding; conditions: pH 7.4
T1 sequence (Q16572 1-532 K317A): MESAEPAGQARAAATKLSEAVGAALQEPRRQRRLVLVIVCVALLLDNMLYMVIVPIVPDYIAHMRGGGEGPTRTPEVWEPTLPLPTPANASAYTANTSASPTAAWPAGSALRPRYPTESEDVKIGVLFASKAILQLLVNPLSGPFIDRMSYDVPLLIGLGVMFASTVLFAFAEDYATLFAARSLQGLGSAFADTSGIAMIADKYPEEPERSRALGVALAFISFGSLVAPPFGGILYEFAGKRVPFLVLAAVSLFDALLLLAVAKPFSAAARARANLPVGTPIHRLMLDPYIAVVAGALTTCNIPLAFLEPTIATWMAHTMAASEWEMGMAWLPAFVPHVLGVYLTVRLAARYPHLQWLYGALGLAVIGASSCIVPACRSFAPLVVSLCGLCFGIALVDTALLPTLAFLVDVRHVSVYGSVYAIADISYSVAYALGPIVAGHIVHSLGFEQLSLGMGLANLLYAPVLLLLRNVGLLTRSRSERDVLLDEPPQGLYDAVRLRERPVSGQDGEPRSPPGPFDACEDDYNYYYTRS

hVAChT F392A = target: T2, hVAChT F392A (Homo sapiens, UniProt Q16572, F392A); test: [3H]vesamicol saturation binding; conditions: pH 7.4
T2 sequence (Q16572 1-532 F392A): T1 sequence (Q16572 1-532 K317A) with A317K, F392A

hVAChT W331L [2] = target: T3, hVAChT W331L (Homo sapiens, UniProt Q16572, W331L); test: [3H]ACh transport; type: biochemical
T3 sequence (Q16572 1-532 W331L): T1 sequence (Q16572 1-532 K317A) with A317K, W331L

hVAChT W331L [3] = target: T3, hVAChT W331L; test: ACh equilibrium binding by competition against [3H]vesamicol
hVAChT W325F = target: T4, hVAChT W325F (Homo sapiens, UniProt Q16572, W325F); test: [3H]ACh transport; type: biochemical
T4 sequence (Q16572 1-532 W325F): T1 sequence (Q16572 1-532 K317A) with A317K, W325F

hVAChT K317A [4] = target: T1, hVAChT K317A; test: [3H]ACh transport; type: biochemical
hVAChT K317A [5] = target: T1, hVAChT K317A; test: ACh equilibrium binding by competition against [3H]vesamicol
[6] = read-out: KM, Michaelis-Menten constant for ACh transport, pH 7.4

Row | SMILES | Bmax, maximal specific [3H]vesamicol binding (VAChT expression level) (hVAChT K317A [1]) | Bmax, maximal specific [3H]vesamicol binding (VAChT expression level) (hVAChT F392A) | Vmax/Bmax, ACh transport normalized to Bmax (hVAChT W331L [2]; pH 7.4) | Km (hVAChT W331L [2]; [6]) | ACh bound more weakly than by wild-type (hVAChT W331L [3]; W331L hVAChT vs wild-type) | FHA, fraction of the ACh sites that have high affinity (hVAChT W331L [3]; W331L hVAChT, pH 7.4, monophasic fit, FHA fixed to 1) | Vmax/Bmax, ACh transport normalized to Bmax (hVAChT W325F; pH 7.4) | Km (hVAChT W325F; [6]) | Vmax/Bmax, ACh transport normalized to Bmax (hVAChT K317A [4]; pH 7.4) | Km (hVAChT K317A [4]; [6]) | Kd (hVAChT K317A [5]) | FHA, fraction of the ACh sites that have high affinity (hVAChT K317A [5]; K317A hVAChT, pH 7.4)
1 | O[C@@H]1CCCC[C@H]1N1CCC(c2ccccc2)CC1 (racemic) [vesamicol, ( )-trans-2-(4-phenylpiperidino)cyclohexanol] | 21 ± 1 pmol/mg | 93 ± 5 pmol/mg | – | – | – | – | – | – | – | – | – | –
2 | CC(=O)OCC[N+](C)(C)C [ACh, acetylcholine] | – | – | 6.2 ± 1.2 min⁻¹ | 4.6 ± 1.5 mM | 10 fold | 1.0 | 5.0 ± 0.5 min⁻¹ | 1 ± 0.3 mM | 17.8 ± 3.9 min⁻¹ | 3.2 ± 1.2 mM | 6.9 ± 1.2 mM | 0.72 ± 0.06
